Measurements as given in ChEMBL document CHEMBL2384978, “The opposite effect of isotype-selective monoamine oxidase inhibitors on adipogenesis in human bone marrow mesenchymal stem cells” (2013).
Calls of active or inactive are those of the source. The calls are words filed in the database; no cut-off is given here.

Key:
Assay type in all cases: functional
MSC [1] = assay: Induction of adipogenesis in human bone marrow MSC assessed as adiponectin production at 30 uM after 14 days by ELISA relative to control
[2] = Induction of adipogenesis in human bone marrow MSC assessed as formation of intracellular lipid droplets at 10 uM after 15 days by oil red O staining in IDX condition relative to control
MSC [3] = assay: Induction of SSAO-mediated adipogenesis in human bone marrow MSC assessed as adiponectin level at 0.1 to 1 mM after 14 days by ELISA
MSC [4] = assay: Induction of adipogenesis in human bone marrow MSC assessed as AOC2 up-regulation by RT-PCR analysis
MSC [5] = assay: Induction of adipogenesis in human bone marrow MSC assessed as adiponectin up-regulation by RT-PCR analysis
MSC [6] = assay: Induction of adipogenesis in human bone marrow MSC assessed as AOC3 up-regulation by RT-PCR analysis
MSC [7] = assay: Induction of adipogenesis in human bone marrow MSC assessed as MAO-B up-regulation by RT-PCR analysis
MSC [8] = assay: Induction of adipogenesis in human bone marrow MSC assessed as PPARgamma up-regulation by RT-PCR analysis
MSC [9] = assay: Induction of adipogenesis in human bone marrow MSC assessed as MAO-A up-regulation by RT-PCR analysis
MSC [10] = assay: Induction of adipogenesis in human bone marrow MSC assessed as adiponectin production after 14 days by ELISA in IDX condition

Compound: NCCNC(=O)c1ncsc1-c1cccc(F)c1
- Activity (MSC [1]): Active
- Activity [2]: 49%

Compound: NNC(N)=O
- Activity (MSC [3]): inactive

Compound: N[C@@H]1C[C@H]1c1ccccc1.N[C@H]1C[C@@H]1c1ccccc1 (racemic) [TRANYLCYPROMINE]
- Activity [2]: 79%

Compound: COc1ccc(Cl)cc1C(=O)NCCc1ccc(S(=O)(=O)NC(=O)NC2CCCCC2)cc1 [GLYBURIDE]
- Activity (MSC [4]): Active
- Activity (MSC [5]): Active
- Activity [2]: 134%
- Activity (MSC [6]): Active
- Activity (MSC [7]): Active
- Activity (MSC [8]): Active
- Activity (MSC [9]): Active

Compound: O=C(NCCN1CCOCC1)c1ccc(Cl)cc1 [MOCLOBEMIDE]
- Activity [2]: 146%
- Activity (MSC [10]): Dose-dependent effect

Compound: C#CCN(C)Cc1ccccc1 [PARGYLINE]
- Activity (MSC [1]): Active
- Activity [2]: 54%

Compound: NNCCc1ccccc1 [PHENELZINE]
- Activity [2]: 85%

Compound: C#CCN(C)[C@H](C)Cc1ccccc1 [SELEGILINE]
- Activity [2]: 105%
- Activity (MSC [10]): Dose-dependent effect
